Counter-ions that a name gives are not always drawn.
How the values were obtained:
NK2 receptor [1] = test: Antagonism of NKA aerosol induced respiratory effects in conscious guinea pigs; format: in vivo, guinea pig; conditions: 20 min prior to NKA aerosol (0.05%); for DYSPNEA ONSET: mean and SEM
Method: (§1) ANTAGONISM OF NKA AND CAPSAICIN INDUCED R[…] IN CONSCIOUS GUINEA PIGS
(§2) In vivo experiments were performed using male Duncan Hartley guinea pigs (250-350 g). Changes in conscious breathing patterns were monitored in four animals simultaneously using modified whole body plethysmography consisting of four small plexiglass boxes each connected to a reference box via Validyne DP 45-16 differential pressure transducers. The 4 boxes were equipped with an air supply line (also used for aerosol delivery) and an exhaust air line. Supply and exhaust lines were of the same length and narrow bore and arose from a common supply chamber and vented to a common exhaust chamber. This system was used to ensure that fluctuations in supply air and atmospheric pressure would remain in phase and be eliminated from the net signal by the differential pressure transducers. The analog pressure signals were digitalized via a Data Translation DT2821 A to D board. Data were collected at a rate of 100 samples/second/animal. Each cycle of pressure change was analyzed using the following parameters: rising and falling slope determined between minimum and maximum pressures, the ratio of rising over falling slope, and the magnitude of the change between initial trough pressure and peak cycle pressure. Using these values (and observing the animals) the pressure cycles were characterized into normal breaths, forced exhalations (apparent by abdominal heaving), significant respiratory events (SREs; usually coughs, less often sneezes or gasps which were characterized by transient, extremely large pressure increases which were distinguishable from noise) and movement/noise with a PCAT 286 running a System V UNIX operating system. Dyspnea was defined as a significant, sustained increase in plethysmograph pressure which was associated with an observable shift to labored breathing in the animal.
(§3) During the course of a typical experiment in which airway responsiveness to various bronchoconstricting agents was examined, aerosols were delivered for 19 min (0.33 ml/min) using a DeVilbiss Ultraneb 99 ultrasonic nebulizer and animals monitored during this time. Prior to nebulization, 1 min of resting breathing was collected to establish a baseline pressure. […] The vehicle for nebulization of all bronchoconstrictive agents was phosphate buffered saline (pH 7.4) which elicited no r[…] itself. Putative tachykinin antagonists were administered either (i.v.) 20 min prior to onset of aerosol exposure or orally 1 hour prior to onset (to guinea pigs after an overnight fast).
Table 6 illustrates the effects of the compounds of Example 3; Example 20A; and Example 5A on r[…] induced by NKA aerosol. […] These effects were dose dependent i.e. the higher the dose of compound, the greater attenuation of NKA-mediated effects.

NK2 receptor [2] = molecular target: T1, NK2 receptor (Bos taurus, UniProt P05363); test: Antagonism of NK2 receptor mediated (NKA-induced) phosphatidylinositol turnover in SKLKB82#3 cells; format: cell-based; conditions: SKLKB82#3 cells, NKA; for NK-2 RECEPTOR -SLOPE: Schild analysis; for NK-2 RECEPTOR pA2: Schild analysis of 2-3 experiments, 95% confidence limits on next line
T1 construct: expressed in transfected cells; host or cells: SKLKB82#3 cells (murine B82 fibroblasts by own knowledge)
T1 sequence (P05363 1-384): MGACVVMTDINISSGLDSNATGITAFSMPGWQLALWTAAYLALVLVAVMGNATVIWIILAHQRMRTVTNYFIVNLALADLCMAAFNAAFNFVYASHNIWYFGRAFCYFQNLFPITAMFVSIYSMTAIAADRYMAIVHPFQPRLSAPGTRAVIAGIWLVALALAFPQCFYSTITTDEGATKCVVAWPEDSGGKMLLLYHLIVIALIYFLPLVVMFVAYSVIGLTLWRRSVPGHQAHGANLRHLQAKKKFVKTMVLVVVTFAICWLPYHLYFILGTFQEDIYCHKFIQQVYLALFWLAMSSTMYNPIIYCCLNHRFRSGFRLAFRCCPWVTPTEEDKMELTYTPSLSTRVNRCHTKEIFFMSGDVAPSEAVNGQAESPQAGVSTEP
Method: (§4) ANTAGONISM OF NK1 AND NK2 RECEPTOR MEDIATED PHOSPHATID[…]
(§5) Tachykinin-mediated inositol phosphate accumulation was measured in UC11 or SKLKB82#3 cells in the presence and absence of NK1 or NK2 receptor antagonists, respectively. Tissues were incubated in Krebs-Henseleit buffer at 37° C. with 95% O2 -5% CO2 gassing. Tissues were then incubated with fresh buffer containing 100 μCi of myo-[2-^3 H(N)] inositol at 37° C. for 60 min with gentle gassing. After washing twice in 5 ml room temperature buffer containing 10 mM LiCl, tissues were incubated for 30 min at room temperature with a buffer change at 15 min. Buffer was removed and Krebs-Henseleit buffer (containing 40 μg/ml bacitracin, 4 μg/ml each of leupeptin and chymostatin, 0.1% bovine serum albumin and 10 mM each of thiorphan and LiCl) added. After 15 min, SP was added to UC11 cells or NKA to SKLKB82#3 cells at various concentrations to start the reaction. After incubation for 60 min at room temperature the reaction was terminated by addition of 930 μl chloroform: methanol (1:2 by volume) to each tube, followed by 310 μl chloroform and 310 μl doubly distilled water. Samples were vortexed, centrifuged, and 0.9 ml of the aqueous (top) phase removed and added to 2 ml ddH2 O. The mixture was vortexed and loaded onto a 50% Bio-Rad AG 1-X8 (formate form, 100-200 mesh) exchange column (Bio-Rad Laboratories, Hercules, Calif.). The columns were washed, in order, with: 1) 10 ml doubly distilled water, 2) 5 ml of 5 mM disodium tetraborate/60 mM sodium formate, and 3) 5 ml of 1M ammonium formate/0.1M formic acid. The third elution was collected and 1 ml counted in 7 ml scintillation fluid. A 50 μl aliquot of the organic (bottom) phase was removed, dried in a scintillation vial and counted in 7 ml scintillation fluid.
(§6) The ratio of DPM in the aqueous phase aliquot (total inositol phosphates) to the DPM in the 50 μl organic phase aliquot (total [^3 H]inositol incorporated) was calculated for each sample. Data are expressed as a percent of agonist-induced accumulation of [^3 H]-inositol phosphates over basal levels. The ratios in the presence of test compound and/or standards were compared to the ratios for control samples (i.e. no stimulating agonist). Dose-response graphs were constructed and the abilities of the test compounds to inhibit tachykinin-induced phosphatidyinositol turnover determined with the aid of a computer program. […] Data is expressed as percent stimulation of total inositol phosphate accumulation over basal levels and normalized to the maximum response produced by SP. […] Schild analysis is performed using dose response curves (such as those presented in FIGS. 1a and 1b) to obtain a value indicative of the strength of a competitive antagonist and is expressed as the pA2, which is the negative logarithm of the molar concentration of antagonist which reduces the effect of a dose of agonist to one-half of that expected at the dose of agonist.

NK1 receptor = molecular target: T2, NK1 receptor (Homo sapiens, UniProt P25103); test: Antagonism of NK1 receptor mediated (SP-induced) phosphatidylinositol turnover in UC11 cells; format: cell-based; conditions: UC11 cells, SP; for NK-1 RECEPTOR -SLOPE: Schild analysis; for NK-1 RECEPTOR pA2: Schild analysis of 2-3 experiments, 95% confidence limits on next line
T2 construct: endogenous in cells; host or cells: UC11 cells
Method: as §4, §5, §6

NK1 and NK2 receptors = test: Antagonism of capsaicin aerosol induced respiratory effects in conscious guinea pigs; format: in vivo, guinea pig; conditions: for SRE NUMBER (coughs/gasps): 19 min capsaicin exposure; for SRE NUMBER (coughs/gasps) / DYSPNEA ONSET / MAXIMUM PRESSURE INCREASE: mean and SEM; for DYSPNEA INCIDENCE / DYSPNEA ONSET / MAXIMUM PRESSURE INCREASE: capsaicin aerosol 0.001%; for antagonism of effects of capsaicin aerosol (in words): administered orally; for inhibition of endogenous tachykinins released by capsaicin aerosol (in words): guinea pig, in vivo
Method: as §1, §2, §3
Capsaicin aerosol is known to promote release of the tachykinins SP and NKA from sensory nerves in the airways of guinea pigs which may then act upon NK1 and NK2 receptors, respectively to elicit r[…]. The ability of the compounds of Example 3A; and Example 20A to attenuate capsaicin-induced r[…], shown in Table 7a, is inferred from their ability to reduce incidence of dyspnea, prolong the onset of the response and reduce the number of coughs/gasps which occur during aerosol exposure.

[3] = 25 mg/kg oral gavage 1 hr prior
[4] = 50 mg/kg oral gavage 1 hr prior
[5] = 100 mg/kg oral gavage 1 hr prior

T2 sequence (P25103 whole entry): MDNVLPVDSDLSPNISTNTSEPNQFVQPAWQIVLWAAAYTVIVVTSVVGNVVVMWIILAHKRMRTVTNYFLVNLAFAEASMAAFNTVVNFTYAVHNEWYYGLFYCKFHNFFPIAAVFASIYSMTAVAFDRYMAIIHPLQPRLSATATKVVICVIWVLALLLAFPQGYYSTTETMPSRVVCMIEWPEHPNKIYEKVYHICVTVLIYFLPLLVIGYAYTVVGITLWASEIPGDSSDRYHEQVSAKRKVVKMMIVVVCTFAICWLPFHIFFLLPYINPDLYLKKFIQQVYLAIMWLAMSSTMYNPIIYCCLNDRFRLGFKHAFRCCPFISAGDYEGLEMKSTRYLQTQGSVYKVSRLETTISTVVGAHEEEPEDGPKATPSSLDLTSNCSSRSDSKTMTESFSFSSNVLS

Compound | NK-2 RECEPTOR -SLOPE (NK2 receptor [2]) | NK-2 RECEPTOR pA2 (NK2 receptor [2]) | NK-1 RECEPTOR -SLOPE (NK1 receptor) | NK-1 RECEPTOR pA2 (NK1 receptor) | SRE NUMBER (coughs/gasps) (NK1 and NK2 receptors; [3]) | DYSPNEA INCIDENCE (NK1 and NK2 receptors; [3]) [%] | DYSPNEA ONSET (NK1 and NK2 receptors; [3]) [s] | MAXIMUM PRESSURE INCREASE (NK1 and NK2 receptors; [3]) [mmH2 O] | SRE NUMBER (coughs/gasps) (NK1 and NK2 receptors; [4]) | DYSPNEA INCIDENCE (NK1 and NK2 receptors; [4]) [%] | DYSPNEA ONSET (NK1 and NK2 receptors; [4]) [s] | MAXIMUM PRESSURE INCREASE (NK1 and NK2 receptors; [4]) [mmH2 O] | antagonism of effects of capsaicin aerosol (in words) (NK1 and NK2 receptors) | inhibition of endogenous tachykinins released by capsaicin aerosol (in words) (NK1 and NK2 receptors) | other results
COc1cccc(OC)c1C(=O)N1CCC(CCN2CCC(C(N)=O)(c3ccccc3)CC2)(c2ccc(Cl)c(Cl)c2)C1 (stereo not drawn) [Example 5A, 1-[2-[3-(3,4-dichloro-phenyl)-1-(2,6-dimethoxy-benzoyl)-pyrrolidin-3-yl]-ethyl]-4-phenyl-piperidine-4-carboxylic acid amide hydrochloride] | 1.11 | 7.35 | 1.17 | 7.32 |  |  |  |  |  |  |  |  |  |  | DYSPNEA INCIDENCE (NK2 receptor [1]; 5 mg/kg): 60%; DYSPNEA ONSET (NK2 receptor [1]; 5 mg/kg): 654 ± 37 s; DYSPNEA INCIDENCE (NK2 receptor [1]; 10 mg/kg): 54%; DYSPNEA ONSET (NK2 receptor [1]; 10 mg/kg): 608 ± 65 s
COc1cc(C(=O)N2CCC(CCN3CCC(C(N)=O)(c4ccccc4)CC3)(c3ccc(Cl)c(Cl)c3)C2)cc(OC)c1OC (single isomer, unassigned; (+)) [Example 20, (+)-1-[2-[3-(3,4-dichloro-phenyl)-1-(3,4,5-trimethoxy-benzoyl)-pyrrolidin-3-yl]-ethyl]-4-phenyl-piperidine-4-carboxylic acid amide] | 1.00 |  | 1.03 |  |  |  |  |  |  |  |  |  |  |  | 
COc1cc(C(=O)N2CCC(CCN3CCC(C(N)=O)(c4ccccc4)CC3)(c3ccc(Cl)c(Cl)c3)C2)cc(OC)c1OC (racemic) [Example 3A, 1-[2-[3-(3,4-dichloro-phenyl)-1-(3,4,5-trimethoxy-benzoy1)-pyrrolidin-3-yl]-ethyl]-4-phenyl-piperidine-4-carboxylic acid amide hydrochloride] | 0.73 | 8.75 | 0.90 | 7.91 | 4.6 ± 1.0 | 80 | 424 ± 120 | 0.7 ± 0.2 | 2.8 ± 0.8 | 70 | 434 ± 152 | 0.4 ± 0.1 | antagonize the effects of capsaicin aerosol when administered orally | inhibit the endogenous tachykinins released by capsaicin aerosol | SRE NUMBER (coughs/gasps) (NK1 and NK2 receptors; 10 mg/kg intravenous): 8.50 ± 1.9; DYSPNEA INCIDENCE (NK1 and NK2 receptors; 10 mg/kg intravenous): 89%; DYSPNEA ONSET (NK1 and NK2 receptors; 10 mg/kg intravenous): 480 ± 80 s; MAXIMUM PRESSURE INCREASE (NK1 and NK2 receptors; 10 mg/kg intravenous): 0.83 ± 0.18 mmH2 O; SRE NUMBER (coughs/gasps) (NK1 and NK2 receptors; [5]): 2.1 ± 0.5; DYSPNEA INCIDENCE (NK1 and NK2 receptors; [5]): 50%; DYSPNEA ONSET (NK1 and NK2 receptors; [5]): 360 ± 120 s; MAXIMUM PRESSURE INCREASE (NK1 and NK2 receptors; [5]): 0.4 ± 0.1 mmH2 O
COc1cccc(OC)c1C(=O)N1CCC(CCN2CCC(C(N)=O)(c3ccccc3)CC2)(c2ccc(Cl)c(Cl)c2)C1 (stereo not drawn) [Example 5] |  |  |  |  | 4.4 ± 1.2 | 66.7 | 253 ± 47 | 0.7 ± 0.1 | 4.9 ± 1.9 | 85.7 | 384 ± 85 | 0.5 ± 0.1 | antagonize the effects of capsaicin aerosol when administered orally | inhibit the endogenous tachykinins released by capsaicin aerosol | 
